A word on the IC50: it is the midpoint of a concentration-inhibition curve. The term inhibition denotes the drop in the measured response relative to a control, in per cent. In general, LC50 refers to the concentration that kills 50% of the test population. Read a low LC50 as greater toxicity.

Results on three molecules are retold here after article PMC9781803, “Phenotypic and Target-Directed Screening Yields New Acaricidal Alternatives for the Control of Ticks” (Molecules, 2022).

Bounds are passed on as bounds.

In data set [1] the test system is fully engorged females of the Mozo susceptible strain of R. microplus. Put plainly: Adult Immersion Test (AIT). In kind it is in vivo. The following applies: for % of Mortality AIT: compounds 1.5 mM, 15 min immersion, 14 days. As to the method: This essay was performed based on Drummond et al., 1973, as each group of 5 fully engorged females of the Mozo susceptible strain of R. microplus was immersed in 50 mL tubes containing 10 mL of compounds at different concentrations (0.5, 1, 1.5, 2, 3.5 mM) for 15 min in four replicates. Four negative control groups were used (DMSO 10%). After immersion, the fully engorged females were lightly dried with absorbent paper. They were then placed in 100 mm disposable Petri dishes with their respective identification, and immediately incubated at 27 °C in an atmosphere with relative humidity (RH) of 85-90% for 14 days. […] The tubes carrying the eggs were closed with hydrophilic cotton, and were returned to the incubator chamber under the same conditions until the eggs hatched. The reproductive efficacy, as well as % control of each compound on R. microplus, was calculated according to published reports. The results were verified in two independent experiments.

Data set [2] has as its system R. microplus (Mozo strain) larvae. Put plainly: Larval Immersion Test (LIT). In kind it is in vivo. The following applies: compounds 1.0 mM, 10 min immersion, 24 h. The protocol: (§1) This assay was performed based on the method of Castro-Janer et al., 2011. Fully engorged females of R. microplus (Mozo strain) were incubated in Petri dishes at 27 °C and 85–90% relative humidity for 14 days. […] The tubes were incubated in the same conditions as described above. The larvae were ready for testing after 14 to 21 days from egg-hatching. For the test, the compounds were diluted in DMSO, and were later resuspended in distilled water, always using 15% DMSO of the final solution volume. The concentrations for the different compounds for the final immersion solution are 1 mg/mL for the extracts, and 1 mM for the compounds. […] For the immersion procedure, tubes containing the larvae were placed vertically, without the cotton plug, and the larvae were taken with a brush from the top of the tube, ensuring they were viable. A cluster with a diameter of 2 mm of larvae was collected with a brush, and was later immersed in each solution, as well as in both control solutions, for 10 min. After this time, the solutions were drained, and the larvae were placed in 8.5 cm × 7.5 cm Whatman No. 1 filter papers. The filters were folded in the middle of the 8.5 cm side, and closed with 3 bulldog clips, forming packets. These packets were incubated for 24 h, under the same conditions as described previously, and then the percent of mortality was determined, considering it as the % of the control.

Data set [3] has as its system embryonic cell line BME26. Put plainly: Phenotypic screening on BME26 cell cultures (MTT viability). The class given is cell-based, R. microplus. As to conditions: for IC50: BME26 cells, 24 h, MTT, read-out: IC50; for inhibition at 100 µM: synthetic compounds at 100 μM, BME26, 24 h, read-out: % of Growth Inhibition. As to the method: The embryonic cell line BME26 from R. microplus (Centro de Biotecnologia, Universidade Federal do Rio Grande do Sul, Porto Alegre, RS, Brazil) was grown as adherent monolayers in a complete medium, as described previously, which consisted of L-15B300 medium supplemented with 5% heat-inactivated Fetal Bovine Serum (FBS) (Gibco Co., Grand Island, NY), 10% Tryptose Phosphate Broth (TPB) (BD), penicillin (100 U/mL), streptomycin ([…], Gibco Co., Grand Island, NY, USA), and 0.1% bovine lipoprotein concentrate (ICN), (pH 7.2). The suspension of embryonic BME26 cells from R. microplus was seeded into 24-well plates (5 × 10^5 cells/well) to a final volume of 500 μL in a complete medium, and allowed to attach. After 24 h incubation at 34 °C, the extracts (100 µg/mL final concentration) and the compounds were added to the final concentrations indicated (1–100 µM), and 0.05% dimethylsulfoxide (DMSO) was used in the negative control wells. After 24 h of treatment, 50 μL of 3-(4,5-dimethylthiazol-2-yl)-2,5-diphenyltetrazolium bromide (MTT) prepared in serum-free medium (5 mg/mL) was added to each well. The media were discarded after 2 additional hours of incubation, and 1 mL of acid-isopropyl alcohol (0.15% HCl in isopropyl alcohol) was added to dissolve the formazan crystals. The mixture was transferred to 1.5 mL tubes, centrifuged at 6000× g for 15 min, and the clear supernatant was collected in new tubes for absorbance measurement at 570 nm using quartz cuvettes in a UVmini-1240 UV–vis spectrophotometer (Shimadzu, Japan). Absorbance values of the control treatment were used for normalization (100% viability). The activity was determined by analysis using OriginLab8.5® sigmoidal regression (% of viable cells compared to the logarithm of the compound concentration). The half-maximal inhibitory concentration (IC50), defined as the drug concentration at which 50% of the cells were viable relative to the control (no drug added), was used as a measurement of activity. These experiments were performed in triplicate for each compound.

Data set [4] deals with J774.1 murine macrophages. Put plainly: Cytotoxicity assay on murine macrophages (MTT). In kind it is cell-based. The following applies: Mus musculus, J774.1, 48 h, read-out: IC50 (µM) Mammalian Cells. The protocol: J774.1 murine macrophages (ATCC, Rockville, MD, USA) were grown in a DMEM culture medium containing 4 mM L-glutamine, and supplemented with 10% FCS. The cells were seeded into a 96-well plate (5 × 10^4 cells in 200 µL culture medium) and incubated at 37 °C in a 5% CO2 atmosphere for 48 h, to allow cell adhesion before drug testing. Afterward, the cells were exposed for 48 h to the compounds (25–400 μM) or the vehicle (0.4% DMSO), and additional controls (cells in medium) were used in each test. Cell viability was then assessed by measuring the mitochondria-dependent reduction of MTT to formazan: for this, MTT in sterile PBS (0.2% glucose), pH 7.4, was added to the macrophages, to a final concentration of 0.1 mg/mL, and the cells were then incubated at 37 °C for 3 h. After removing the medium, the formazan crystals were dissolved in 180 μL of DMSO and 20 μL of MTT buffer (0.1 M glycine, 0.1 M NaCl, 0.5 mM EDTA, pH 10.5), and the absorbance was measured at 560 nm. The IC50 was defined as the drug concentration at which 50% of the cells were viable, relative to the control (no drug added), and was determined by analysis using OriginLab 8.5 Corporation, Northampton, MA, USA, sigmoidal regression (% of viable cells compared to the logarithm of the compound concentration). The tests were performed in triplicate in two independent experiments.

Data set [5] concerns R. microplus. Put plainly: Acaricidal activity on R. microplus (LIT and AIT, overall statement). The class given is in vivo. As to conditions: LIT 1 mM and AIT 1.5 mM. The protocol: as §1, with “After immersion, the fully engorged females were lightly dried with absorbent paper. […] The tubes carrying the eggs were closed with hydrophilic cotton, and were returned to the incubator chamber under the same conditions until the eggs hatched. The reproductive efficacy, as well as % control of each compound on R. microplus, was calculated according to published reports. The results were verified in two independent experiments. This” for “This”, “2011.” for “2011. Fully engorged females of R. microplus (Mozo strain) were incubated in Petri dishes at 27 °C and 85–90% relative humidity for 14 days.”, “volume.” for “volume. The concentrations for the different compounds for the final immersion solution are 1 mg/mL for the extracts, and 1 mM for the compounds.”

Details of data set [6]: method as in PMID 28481276. The following applies: experimental data; cited from earlier work.
Details of data set [7]: method as in PMID 28481276. As to conditions: in mice; cited from earlier work.
For data set [8], the system named is ticks of the population of multiresistant field. Put plainly: Adult immersion test on multiresistant field population (Table S3). In kind it is in vivo, R. microplus. The following applies: preliminary study.

Consider `Cc1ccc(/N=C/N(C)/C=N/c2ccc(C)cc2C)c(C)c1` [Amitraz, reference compound], for which the “% of Mortality AIT” value in data set [1] is 100%. Besides, the “% of Mortality LIT” value in data set [2] was found to be 100%.

For the molecule `O=C(/C=C/c1cccs1)/C=C/c1cccs1` [compound 796], in data set [3], the IC50 came to 15 ± 3 µM and the inhibition at 100 µM was found to be 93%. In addition, the IC50 in data set [4] was over 50 µM. Further, in data set [1], the “% of Mortality AIT” value was found to be 20 ± 1%. Further, the “% of Mortality LIT” value in data set [2] was determined as 36 ± 8%. Further, in data set [5], the “acaricidal activity (in words)” value is listed as “acaricidal potential against R. microplus similar to Amitraz”. Also, in data set [6], the “Mutagenicity by Ames Test” value is “Negative *”. In data set [7], the “LD50 (mg/kg)” value is >2000^+ mg/kg.

Consider `O=C(/C=C/c1ccccn1)c1ccccc1O` [compound 885], for which the figures for the IC50 in data set [3] and in data set [4] were 17 ± 4 µM and over 50 µM, respectively. Further, the inhibition at 100 µM in data set [3] came out at 91%. This molecule had an LC50 in data set [1] (adult females) of 1 mM. The “% of Mortality AIT” value in data set [1] is listed as 100 ± 9%. In data set [2], the “% of Mortality LIT” value was 100 ± 9%. Besides, the “acaricidal activity (in words)” value in data set [5] is “acaricidal potential against R. microplus similar to Amitraz”. Besides, the “acaricidal activity on multiresistant strain (in words)” value in data set [8] is “had acaricidal activity”.
